From patent US20230133910A1, “NEW METHOD FOR DETECTING AND QUANTIFYING RNA” (EAST CHINA UNIVERSITY OF SCIENCE AND TECHNOLOGY, priority 2020, published 2023) come the findings set out here.

Structures are written as SMILES.

In this data set the test system is Carrot-1 RNA aptamer. Kind of data set: Properties of Carrot-1 RNA aptamer with different fluorophores (spectra, extinction coefficient, quantum yield, activation fold). Format: biochemical. To be noted: for Emmax / Exmax / Extinction coefficient / Quantum yield: fluorophore bound to Carrot-1 RNA aptamer; for Activation fold: fluorophore with Carrot-1 RNA aptamer versus fluorophore alone. The procedure: (5) Function detection of nucleic acid aptamers Carrot or Carrot mutant nucleic acid aptamer molecules were prepared according to common experimental method (I), 5 μM of nucleic acid aptamer molecules and 1 μM of fluorophore molecules were incubated in detection buffer (40 mM HEPES, pH 7.4, 125 mM KCl, 5 mM MgCl2, 5% DMSO), and Synergy Neo2 multifunctional microplate reader was used for detecting and obtaining the maximum excitation peak and the maximum emission peak of the fluorescence of the nucleic acid aptamer-fluorophore molecule complex. The Synergy Neo2 multifunctional microplate reader was used again for detecting the fluorescence intensity of the aptamer-fluorophore molecule complex under its maximum excitation and emission conditions. Control sample (1 μM of fluorophore molecules without nucleic acid aptamer) was measured under the same condition, and the ratio of fluorescence intensity was calculated. […] By using Synergy Neo2 multifunctional microplate reader, it was detected that the fluorescence intensity of the complex was 5720 when it was excited at 524±10 nm and emitted under the emission condition of 580 nm±10 nm, while fluorescence intensity of the control sample (1 μM of IV-39 fluorophore molecules) under the same detection condition was 20, so the activation multiple of Carrot-1 nuclear acid aptamer to IV-39 fluorophore molecule was 286.
In order to detect the spectral properties of the Carrot-IV-39 complex, Carrot-1 (SEQ ID NO: 2) RNA was prepared according to the commonly used experimental method (1). 1 μM IV-39 with 5 μM Carrot-1 was incubated.
Carrot-1 RNA aptamer was prepared according to the commonly used experimental methods (1), and was used to detect the properties of IV-39 analogues upon Carrot binding, including the fluorescence spectrum, extinction coefficient, quantum yield and fluorescence activation fold. From the data shown in the table, Carrot-1 still could activate the fluorescence of IV-39 analogues.

With `CN1C(=O)/C(=C/c2cc(F)c(O)c(F)c2)N=C1/C=C/c1cccc(O)c1` [Carrot-1-IV-4], the Emmax came to 574 nm, the Exmax stood at 490 nm, the Extinction coefficient came out at 23000 M⁻¹ cm⁻¹ and the Quantum yield stood at 0.37. Also, the Activation fold is on record as 191 fold.

For the molecule `CN1C(=S)/C(=C/c2cc(F)c(O)c(F)c2)N=C1/C=C/c1ccc(F)cc1` [Carrot-1-IV-7], the Emmax was 598 nm, the Exmax is 514 nm, the Extinction coefficient came out at 24000 M⁻¹ cm⁻¹ and the Quantum yield came to 0.27. In addition, the Activation fold stood at 201 fold.

For `CN1C(=S)/C(=C/c2cc(F)c(O)c(F)c2)N=C1/C=C/c1ccc(C#N)cc1` [Carrot-1-IV-8], the Emmax was found to be 638 nm, the Exmax came to 534 nm, the Extinction coefficient came to 22500 M⁻¹ cm⁻¹ and the Quantum yield turned out to be 0.21. The Activation fold worked out at 68 fold.

For `CC(C)CN1C(=O)/C(=C/c2cc(F)c(O)c(Br)c2)N=C1/C=C/c1ncc(C#N)cn1` [Carrot-1-IV-11], the Emmax is 614 nm, the Exmax came out at 507 nm, the Extinction coefficient was found to be 21000 M⁻¹ cm⁻¹ and the Quantum yield amounted to 0.05. The Activation fold is 16 fold.

In the case of `COCCOCCOCCOCCN1C(=O)/C(=C/c2cc(F)c(O)c(I)c2)N=C1/C=C/c1ccc(Cl)cc1` [Carrot-1-IV-12], the Emmax was 577 nm, the Exmax stood at 482 nm, the Extinction coefficient is 19000 M⁻¹ cm⁻¹ and the Quantum yield was 0.03. The Activation fold is reported as 6 fold.

On to `CNC(=O)CN1C(=O)/C(=C/c2cc(Cl)c(O)c(Cl)c2)N=C1/C=C/c1ccc(Br)cc1` [Carrot-1-IV-13], for which the Emmax is on record as 579 nm, the Exmax is 478 nm, the Extinction coefficient turned out to be 20000 M⁻¹ cm⁻¹ and the Quantum yield is given as 0.02. Also, the Activation fold came out at 5 fold.

For `C#CCN1C(=O)/C(=C/c2ccc(O)c(Cl)c2)N=C1/C=C/c1ccc(I)cc1` [Carrot-1-IV-14], the Emmax stood at 585 nm, the Exmax was 482 nm, the Extinction coefficient was found to be 21000 M⁻¹ cm⁻¹ and the Quantum yield came out at 0.02. Moreover, the Activation fold turned out to be 6 fold.

`O=C1/C(=C/c2ccc(O)c(Br)c2)N=C(/C=C/c2cccc(Cl)c2)N1CCO` [Carrot-1-IV-15]: the Emmax is reported as 578 nm, the Exmax came out at 480 nm, the Extinction coefficient is 21000 M⁻¹ cm⁻¹ and the Quantum yield is on record as 0.03. The Activation fold is 7 fold.

Turning to `CN1C(=O)/C(=C/c2cc(Br)c(O)c(Br)c2)N=C1/C=C/c1ccc(F)cc1` [Carrot-1-IV-16], the Emmax was 587 nm, the Exmax amounted to 485 nm, the Extinction coefficient was found to be 22000 M⁻¹ cm⁻¹ and the Quantum yield amounted to 0.08. Also, the Activation fold is listed as 34 fold.

Consider `CN1C(=O)/C(=C/c2ccc(N(C)CCO)cc2)N=C1/C=C/c1cccc(O)c1` [Carrot-1-IV-17], for which the Emmax is given as 582 nm, the Exmax came out at 524 nm, the Extinction coefficient was 32000 M⁻¹ cm⁻¹ and the Quantum yield came to 0.47. Also, the Activation fold is recorded as 282 fold.

With `CN1C(=O)/C(=C/c2ccc(N(C)CCO)cc2)N=C1/C=C/c1cccc(F)c1` [Carrot-1-IV-19], the Emmax came to 590 nm, the Exmax was determined as 522 nm, the Extinction coefficient stood at 30000 M⁻¹ cm⁻¹ and the Quantum yield is 0.43. The Activation fold came out at 331 fold.

`CN1C(=O)/C(=C/c2ccc(N(C)CCO)cc2)N=C1/C=C/c1ccc(F)cc1` [Carrot-1-IV-22]: the Emmax is reported as 580 nm, the Exmax was 522 nm, the Extinction coefficient was 32000 M⁻¹ cm⁻¹ and the Quantum yield is listed as 0.46. The Activation fold was 301 fold.

Turning to `C=CCOCCN(C)c1ccc(/C=C2N=C(/C=C/c3ccccc3C#N)N(C)C\2=S)cc1` [Carrot-1-IV-23], the Emmax worked out at 648 nm, the Exmax came out at 547 nm, the Extinction coefficient is 19000 M⁻¹ cm⁻¹ and the Quantum yield is reported as 0.12. The Activation fold amounted to 57 fold.

Turning to `CCCN1C(=S)/C(=C/c2ccc(N(C)C)nc2)N=C1/C=C/c1ccccc1F` [Carrot-1-IV-24], the Emmax was determined as 615 nm, the Exmax was determined as 498 nm, the Extinction coefficient was found to be 21000 M⁻¹ cm⁻¹ and the Quantum yield came to 0.09. Further, the Activation fold is 45 fold.

As to `CCN(CC)c1ccc(/C=C2N=C(/C=C/c3ccc(Cl)cc3)N(CC(=O)OC)C\2=O)nc1` [Carrot-1-IV-25], the Emmax came to 574 nm, the Exmax is 475 nm, the Extinction coefficient came to 18000 M⁻¹ cm⁻¹ and the Quantum yield was 0.02. Besides, the Activation fold is given as 4 fold.

In the case of `CN1C(=O)/C(=C/c2cnc(N(C)CCC#N)nc2)N=C1/C=C/c1ccccc1I` [Carrot-1-IV-27], the Emmax worked out at 576 nm, the Exmax is listed as 472 nm, the Extinction coefficient came out at 19000 M⁻¹ cm⁻¹ and the Quantum yield was 0.09. The Activation fold worked out at 57 fold.

`CN1CCc2cc(/C=C3N=C(/C=C/c4ccc(F)nc4)N(CCO)C\3=O)ccc21` [Carrot-1-IV-28]: the Emmax is given as 579 nm, the Exmax stood at 476 nm, the Extinction coefficient came out at 19000 M⁻¹ cm⁻¹ and the Quantum yield was 0.04. For the same molecule, the Activation fold is reported as 19 fold.

For the molecule `CN1C(=O)/C(=C/c2ccc(N(C)CCS(=O)(=O)O)cc2)N=C1/C=C/c1ccc(C#N)cc1` [Carrot-1-IV-29], the Emmax turned out to be 619 nm, the Exmax came out at 531 nm, the Extinction coefficient was 27000 M⁻¹ cm⁻¹ and the Quantum yield was 0.26. The Activation fold came out at 87 fold.

In the case of `CN1CCc2cc(/C=C3N=C(/C=C/c4ccc(Br)nc4)N(CC(F)(F)F)C\3=O)ccc21` [Carrot-1-IV-30], the Emmax turned out to be 588 nm, the Exmax was 485 nm, the Extinction coefficient was determined as 19000 M⁻¹ cm⁻¹ and the Quantum yield stood at 0.05. Further, the Activation fold was found to be 15 fold.

Take `COCCOCCOCCOCC(=O)OCCN(C)c1ccc(/C=C2N=C(/C=C/c3ccc(C#N)cc3)N(C)C\2=O)cc1` [Carrot-1-IV-31]: the Emmax worked out at 621 nm, the Exmax is recorded as 508 nm, the Extinction coefficient is 24000 M⁻¹ cm⁻¹ and the Quantum yield amounted to 0.15. Also, the Activation fold turned out to be 75 fold.

As for `COC(=O)CNCCN(C)c1ccc(/C=C2N=C(/C=C/c3ccc(Br)cc3)N(C)C\2=O)cc1` [Carrot-1-IV-32], the Emmax is 591 nm, the Exmax came out at 489 nm, the Extinction coefficient worked out at 22000 M⁻¹ cm⁻¹ and the Quantum yield is reported as 0.11. Also, the Activation fold is listed as 64 fold.

On to `CN1C(=O)/C(=C/c2ccc(N(C)CCN)cc2)N=C1/C=C/c1cccc(F)c1` [Carrot-1-IV-33], for which the Emmax was 592 nm, the Exmax came to 519 nm, the Extinction coefficient is 28000 M⁻¹ cm⁻¹ and the Quantum yield came to 0.38. Besides, the Activation fold came to 287 fold.

On to `CN(C)CCN(C)c1ccc(/C=C2N=C(/C=C/c3cccc(F)c3)N(C)C\2=O)cc1` [Carrot-1-IV-34], for which the Emmax is 581 nm, the Exmax amounted to 515 nm, the Extinction coefficient came out at 29000 M⁻¹ cm⁻¹ and the Quantum yield was found to be 0.38. Besides, the Activation fold worked out at 287 fold.

In the case of `CN1C(=O)/C(=C/c2ccc(N)cc2)N=C1/C=C/c1ccc(C#N)cc1` [Carrot-1-IV-35], the Emmax came to 619 nm, the Exmax amounted to 527 nm, the Extinction coefficient was 21000 M⁻¹ cm⁻¹ and the Quantum yield was determined as 0.14. The Activation fold is listed as 97 fold.

With `C#CCOCCN(C)c1ccc(/C=C2N=C(/C=C/c3ccc(F)cc3)N(C)C\2=O)cc1` [Carrot-1-IV-36], the Emmax is 578 nm, the Exmax was 511 nm, the Extinction coefficient stood at 22000 M⁻¹ cm⁻¹ and the Quantum yield is reported as 0.28. For the same molecule, the Activation fold is recorded as 262 fold.

Turning to `CN1C(=O)/C(=C/c2cc(F)c(O)c(F)c2)N=C1/C=C/c1ccccn1` [Carrot-1-IV-38], the Emmax is 581 nm, the Exmax turned out to be 519 nm, the Extinction coefficient came out at 26000 M⁻¹ cm⁻¹ and the Quantum yield came to 0.31. The Activation fold came to 257 fold.
